Experiment [1] has as its system SR (NPM-ALK) cells. The experiment in a line: Growth inhibition IC50 in ALCL SR cells (CCK8/WST, 72 hours). It is filed as cell-based. As to conditions: 72 h, SR cells, WST; Brigatinib-based PROTAD molecules (Table 3).
Method: SR (NPM-ALK) and NCI-H2228 (EML4-ALK, V3) cells were purchased from ATCC. […] All Cells were cultured in RPMI1640 medium with 10% FBS and Penicillin-Streptomycin in 37° C. incubator with 5% CO2.
Cells were seeded at specific density in 96 well plates one day before treatment. […] Viable cells were measured via CCK8 reagent and IC50s were calculated via Prism Graphad. Experiments were repeated at least three times.
Experiment [2] has as its target T1, ALK protein in H3122 (EML4-ALK) cells (Homo sapiens, UniProt Q9UM73).
T1 construct: EML4 (Echinoderm microtubule-associated protein-like 4, Q9HC35) fusion partner, variant 1; host or cells: NCI-H3122 lung adenocarcinoma cells; the other entry of the earlier key: EML4 (Q9HC35, Echinoderm microtubule-associated protein-like 4)
The experiment in a line: Western blot of ALK protein level (degradation, DC50), ALK phosphorylation and downstream signaling in H3122 cells. The class given is cell-based. As to conditions: ALK protein degradation in H3122 cells.

SMILES strings stand for the structures.

T1 sequence (Q9UM73 with tags, fused parts or gaps): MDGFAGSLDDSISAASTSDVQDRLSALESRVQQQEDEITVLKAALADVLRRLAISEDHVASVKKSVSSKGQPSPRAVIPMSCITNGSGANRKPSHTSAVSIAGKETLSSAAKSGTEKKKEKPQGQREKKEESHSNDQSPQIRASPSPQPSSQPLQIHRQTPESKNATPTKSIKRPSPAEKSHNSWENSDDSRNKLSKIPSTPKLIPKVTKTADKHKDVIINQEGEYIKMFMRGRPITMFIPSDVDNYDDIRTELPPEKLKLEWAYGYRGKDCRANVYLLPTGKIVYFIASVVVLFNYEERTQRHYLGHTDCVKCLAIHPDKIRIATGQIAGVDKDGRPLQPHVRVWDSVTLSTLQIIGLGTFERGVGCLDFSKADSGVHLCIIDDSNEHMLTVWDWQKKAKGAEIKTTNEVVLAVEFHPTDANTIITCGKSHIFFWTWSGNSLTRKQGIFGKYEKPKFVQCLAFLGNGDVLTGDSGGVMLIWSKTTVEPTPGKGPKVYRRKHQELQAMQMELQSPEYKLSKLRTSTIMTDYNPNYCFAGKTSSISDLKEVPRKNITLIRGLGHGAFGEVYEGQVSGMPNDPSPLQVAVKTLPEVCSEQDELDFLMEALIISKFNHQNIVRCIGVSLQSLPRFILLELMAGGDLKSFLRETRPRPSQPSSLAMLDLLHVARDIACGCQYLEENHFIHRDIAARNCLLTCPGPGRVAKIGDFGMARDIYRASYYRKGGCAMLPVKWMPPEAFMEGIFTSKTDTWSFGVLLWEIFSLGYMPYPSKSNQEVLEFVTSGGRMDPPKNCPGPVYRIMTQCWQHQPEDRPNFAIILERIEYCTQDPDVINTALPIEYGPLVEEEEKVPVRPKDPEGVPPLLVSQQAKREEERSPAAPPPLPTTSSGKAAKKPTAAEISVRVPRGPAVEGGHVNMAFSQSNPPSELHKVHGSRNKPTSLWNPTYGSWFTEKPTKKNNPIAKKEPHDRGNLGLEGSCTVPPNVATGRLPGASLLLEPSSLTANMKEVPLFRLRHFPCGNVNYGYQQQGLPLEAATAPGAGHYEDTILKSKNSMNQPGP

In the case of `COc1cc(N2CCC(NC(=O)CCOCCNc3cccc4c3C(=O)N(C3CCC(=O)NC3=O)C4=O)CC2)ccc1Nc1ncc(Cl)c(Nc2ccccc2P(C)(C)=O)n1` (stereo not drawn) [SIAIS151113], half-maximal inhibition in experiment [1] (IC50) required 7.5 ± 5.2 nM. For the same molecule, the DC50 (commonly the concentration at which degradation of the target reaches its halfway point) in experiment [2] was in the range of 100 to 500 nM.

Turning to `COc1cc(N2CCC(NC(=O)CCOCCOCCNc3cccc4c3C(=O)N(C3CCC(=O)NC3=O)C4=O)CC2)ccc1Nc1ncc(Cl)c(Nc2ccccc2P(C)(C)=O)n1` (stereo not drawn) [SIAIS151114, N-(1-(4-((5-chloro-4-((2-(dimethylphosphoryl)phenyl)amino)pyrimidin-2-yl)amino)-3-methoxyphenyl)piperidin-4-yl)-3-(2-(2-((2-(2,6-dioxopiperidin-3-yl)-1,3-dioxoisoindolin-4-yl)amino)ethoxy)ethoxy)propenamide], the IC50 (commonly the midpoint of a concentration-inhibition curve) in experiment [1] was 10.9 ± 7.5 nM. In experiment [2], this molecule gave a half-maximal degradation concentration (DC50) of 100 to 500 nM.

Regarding `COc1cc(N2CCC(NC(=O)CCOCCOCCOCCNc3cccc4c3C(=O)N(C3CCC(=O)NC3=O)C4=O)CC2)ccc1Nc1ncc(Cl)c(Nc2ccccc2P(C)(C)=O)n1` (stereo not drawn) [SIAIS151115, N-(1-(4-((5-chloro-4-((2-(dimethylphosphoryl)phenyl)amino)pyrimidin-2-yl)amino)-3-methoxyphenyl)piperidin-4-yl)-3-(2-(2-(2-((2-(2,6-dioxopiperidin-3-yl)-1,3-dioxoisoindolin-4-yl)amino)ethoxy)ethoxy)ethoxy)propenamide], in experiment [1], the IC50 was 8 ± 3.2 nM. Moreover, the half-maximal degradation concentration (DC50) in experiment [2] lay within 100 to 500 nM.

In the case of `COc1cc(N2CCC(NC(=O)CCOCCOCCOCCOCCNc3cccc4c3C(=O)N(C3CCC(=O)NC3=O)C4=O)CC2)ccc1Nc1ncc(Cl)c(Nc2ccccc2P(C)(C)=O)n1` (stereo not drawn) [SIAIS151116, N-(1-(4-((5-chloro-4-((2-(dimethylphosphoryl)phenyl)amino)pyrimidin-2-yl)amino)-3-methoxyphenyl)piperidin-4-yl)-1-((2-(2,6-dioxopiperidin-3-yl)-1,3-dioxoisoindolin-4-yl)amino)-3,6,9,12-tetraoxapentadecan-15-amide], 15.3 ± 9.8 nM corresponded to half-maximal inhibition in experiment [1] (IC50). Also, the DC50 in experiment [2] lay within 100 to 500 nM.

Regarding `COc1cc(N2CCC(NC(=O)CCCCNc3cccc4c3C(=O)N(C3CCC(=O)NC3=O)C4=O)CC2)ccc1Nc1ncc(Cl)c(Nc2ccccc2P(C)(C)=O)n1` (stereo not drawn) [SIAIS151119, N-(1-(4-((5-chloro-4-((2-(dimethylphosphoryl)phenyl)amino)pyrimidin-2-yl)amino)-3-methoxyphenyl)piperidin-4-yl)-5-((2-(2,6-dioxopiperidin-3-yl)-1,3-dioxoisoindolin-4-yl)amino)pentanamide], it took 1.6 ± 1 nM to reach half-maximal inhibition in experiment [1] (IC50). For the same molecule, the DC50 in experiment [2] fell in the range of 100 to 500 nM.

With `COc1cc(N2CCC(NC(=O)CNc3cccc4c3C(=O)N(C3CCC(=O)NC3=O)C4=O)CC2)ccc1Nc1ncc(Cl)c(Nc2ccccc2P(C)(C)=O)n1` (stereo not drawn) [SIAIS151120, N-(1-(4-((5-chloro-4-((2-(dimethylphosphoryl)phenyl)amino)pyrimidin-2-yl)amino)-3-methoxyphenyl)piperidin-4-yl)-2-((2-(2,6-dioxopiperidin-3-yl)-1,3-dioxoisoindolin-4-yl)amino)acetamide], the half-inhibitory concentration (IC50) in experiment [1] came to 11.4 ± 7.8 nM. The molecule also yielded a DC50 in experiment [2] of 20 to 100 nM.

Consider `COc1cc(N2CCC(NC(=O)CCNc3cccc4c3C(=O)N(C3CCC(=O)NC3=O)C4=O)CC2)ccc1Nc1ncc(Cl)c(Nc2ccccc2P(C)(C)=O)n1` (stereo not drawn) [SIAIS151121, N-(1-(4-((5-chloro-4-((2-(dimethylphosphoryl)phenyl)amino)pyrimidin-2-yl)amino)-3-methoxyphenyl)piperidin-4-yl)-3-((2-(2,6-dioxopiperidin-3-yl)-1,3-dioxoisoindolin-4-yl)amino)propenamide], for which the IC50 in experiment [1] was 20.4 ± 8.5 nM. Moreover, the DC50 in experiment [2] lay within 100 to 500 nM.

`COc1cc(N2CCC(NC(=O)CCOCCOCCC(=O)N[C@H](C(=O)N3C[C@H](O)C[C@H]3C(=O)NCc3ccc(-c4scnc4C)cc3)C(C)(C)C)CC2)ccc1Nc1ncc(Cl)c(Nc2ccccc2P(C)(C)=O)n1` [SIAIS151124, (2S,4R)-1-((S)-2-(3-(2-(3-((1-(4-((5-chloro-4-((2-(dimethylphosphoryl)phenyl)amino)pyrimidin-2-yl)amino)-3-methoxyphenyl)piperidin-4-yl)amino)-3-oxopropoxy)ethoxy)propanamido)-3,3-dimethylbutanoyl)-4-hydroxy-N-(4-(4-methylthiazol-5-yl)benzyl)pyrrolidine-2-carboxamide] had a 50% inhibitory concentration (IC50) in experiment [1] of 76.9 ± 15.9 nM. The molecule also displayed a DC50 in experiment [2] of 100 to 500 nM.

As for `COc1cc(N2CCC(NC(=O)CCOCCOCCOCCC(=O)N[C@H](C(=O)N3C[C@H](O)C[C@H]3C(=O)NCc3ccc(-c4scnc4C)cc3)C(C)(C)C)CC2)ccc1Nc1ncc(Cl)c(Nc2ccccc2P(C)(C)=O)n1` [SIAIS151125, (2S,4R)-1-((S)-2-(tert-butyl)-16-((1-(4-((5-chloro-4-((2-(dimethylphosphoryl)phenyl)amino)pyrimidin-2-yl)amino)-3-methoxyphenyl)piperidin-4-yl)amino)-4,16-dioxo-7,10,13-trioxa-3-azahexadecanoyl)-4-hydroxy-N-(4-(4-methylthiazol-5-yl)benzyl)pyrrolidine-2-carboxamide], the IC50 in experiment [1] amounted to 61.9 ± 30.5 nM. The molecule also had a DC50 in experiment [2] of 100 to 500 nM.

Take `COc1cc(N2CCC(NC(=O)CCOCCOCCOCCOCCC(=O)N[C@H](C(=O)N3C[C@H](O)C[C@H]3C(=O)NCc3ccc(-c4scnc4C)cc3)C(C)(C)C)CC2)ccc1Nc1ncc(Cl)c(Nc2ccccc2P(C)(C)=O)n1` [SIAIS151126, N1-(1-(4-((5-chloro-4-((2-(dimethylphosphoryl)phenyl)amino)pyrimidin-2-yl)amino)-3-methoxyphenyl)piperidin-4-yl)-N16-((S)-1-((2S,4R)-4-hydroxy-2-((4-(4-methylthiazol-5-yl)benzyl)carbamoyl)pyrrolidin-1-yl)-3,3-dimethyl-1-oxobutan-2-yl)-4,7,10,13-tetraoxahexadecanediamide]: half-maximal inhibition in experiment [1] (IC50) required 31.9 ± 11.9 nM. The same molecule came in with a DC50 in experiment [2] of 100 to 500 nM.

`COc1cc(N2CCC(NC(=O)CCOCCOCCOCCOCCOCCC(=O)N[C@H](C(=O)N3C[C@H](O)C[C@H]3C(=O)NCc3ccc(-c4scnc4C)cc3)C(C)(C)C)CC2)ccc1Nc1ncc(Cl)c(Nc2ccccc2P(C)(C)=O)n1` [SIAIS151127, N1-(1-(4-((5-chloro-4-((2-(dimethylphosphoryl)phenyl)amino)pyrimidin-2-yl)amino)-3-methoxyphenyl)piperidin-4-yl)-N19-((S)-1-((2S,4R)-4-hydroxy-2-((4-(4-methylthiazol-5-yl)benzyl)carbamoyl)pyrrolidin-1-yl)-3,3-dimethyl-1-oxobutan-2-yl)-4,7,10,13,16-pentaoxanonadecanediamide] returned an IC50 in experiment [1] of 36.4 ± 23.5 nM. Moreover, in experiment [2], the DC50 was in the range of 20 to 100 nM.

Take `COc1cc(N2CCC(NC(=O)COCCOCC(=O)N[C@H](C(=O)N3C[C@H](O)C[C@H]3C(=O)NCc3ccc(-c4scnc4C)cc3)C(C)(C)C)CC2)ccc1Nc1ncc(Cl)c(Nc2ccccc2P(C)(C)=O)n1` [SIAIS151128, (2S,4R)-1-((S)-2-(2-(2-(2-((1-(4-((5-chloro-4-((2-(dimethylphosphoryl)phenyl)amino)pyrimidin-2-yl)amino)-3-methoxyphenyl)piperidin-4-yl)amino)-2-oxoethoxy)ethoxy)acetamido)-3,3-dimethylbutanoyl)-4-hydroxy-N-(4-(4-methylthiazol-5-yl)benzyl)pyrrolidine-2-carboxamide]: the half-inhibitory concentration (IC50) in experiment [1] worked out at 6.3 ± 0.2 nM. Also, the half-maximal degradation concentration (DC50) in experiment [2] was 100 to 500 nM.

(Values after patent US11771709B2, “ALK protein degradation agent and anti-tumor application thereof” (ShanghaiTech University, priority 2017, dated 2023).)
